The test system of one series is SW1573. Conditions: Canon et al. 2019; cited from earlier work.
The conditions of series [1]: ester bond, 18-membered ring, DCM.
For series [2] the following is noted: ester bond, EDCI/HOBt/DIPEA, DCM.
Series [3] concerns NCI-H358 KRASG12C xenograft. The series can be described thus: In vivo NSCLC K-Ras G12C xenograft model. Set-up: species or system BALB/c nude mice. As for the experimental part:
Cobimetinib was administered by daily oral gavage at 2.5 mg/kg. The combination of Compound B and cobimetinib at their respective single-agent dose and regimen was also tested.

The test system of series [4] is NCI-H358 cells. The series can be described thus: 72-hour proliferation assay using CellTiter-Glo reagent. It counts as cell-based, human. The following applies: read-out: EC50 from a 72-hour proliferation assay. Background: In ATP-based viability assays light output follows the ATP content of the culture.
The test system of series [5] is NCI-H358 cells. The series can be described thus: Long-term cell proliferation assay (Incucyte confluence). It counts as cell-based, human. Conditions: trametinib 10 nM. As to the method: The plate was placed in the Incucyte S3 live cell analysis system (37° C., 5% CO2) and confluence was measured by recording images at 6-hour intervals for a maximum of 40 days, or until wells reached maximal confluence. Media and drug were replaced at 3-4 day intervals. Data are plotted as % confluence over the time course of the experiment for each single agent and respective combination (FIG. 5).

[6] abbreviates: single agent: Compound B 50 mg/kg twice weekly intravenous, cobimetinib […] daily oral.

Molecules are shown by their SMILES. Where two headings read alike, the source gives them in different places.

For `C=CC(=O)N1CCN(c2nc(=O)n(-c3c(C)ccnc3C(C)C)c3nc(-c4c(O)cccc4F)c(F)cc23)[C@@H](C)C1` [AMG510], the “sensitivity of cell line” value in the series with SW1573 was “insensitive”.

In series [1] (from CCn1c(-c2cccnc2[C@H](C)OC)c(CC(C)(C)CO)c2nc(-c3csc(C[C@H](NC(=O)OC(C)(C)C)C(=O)N4CCC[C@@H](C(=O)O)N4)n3)ccc21, EDCI.HCl/HOBt/DIPEA, 6.4 mM), `CCn1c(-c2cccnc2[C@H](C)OC)c2c3nc(ccc31)-c1csc(n1)C[C@H](NC(=O)OC(C)(C)C)C(=O)N1CCC[C@H](N1)C(=O)OCC(C)(C)C2` registered a ring closure, isolated yield of 43%. The molecule further displayed a ring closure, yield of all isomers in series [2] (from CCn1c(-c2cccnc2[C@H](C)OC)c(CC(C)(C)CO)c2nc(-c3csc(C[C@H](NC(=O)OC(C)(C)C)C(=O)N4CCC[C@@H](C(=O)O)N4)n3)ccc21, 6.4 mM, 25.0 °C, 16.0 h) of 43%.

`CO[C@@H](C)c1ncccc1-c1c2c3cc(ccc3n1CC(F)(F)F)-c1cccc(n1)C[C@H](NC(=O)OC(C)(C)C)C(=O)N1CCCC(N1)C(=O)OCC(C)(C)C2` (stereo partly drawn) yielded a ring closure, isolated yield in series [1] (from CO[C@@H](C)c1ncccc1-c1c(CC(C)(C)CO)c2cc(-c3cccc(C[C@H](NC(=O)OC(C)(C)C)C(=O)N4CCCC(C(=O)O)N4)n3)ccc2n1CC(F)(F)F, EDCI/HOBt/DIPEA, 6.27 mM) of 89%. The same molecule yielded a ring closure, yield of all isomers in series [2] (from CO[C@@H](C)c1ncccc1-c1c(CC(C)(C)CO)c2cc(-c3cccc(C[C@H](NC(=O)OC(C)(C)C)C(=O)N4CCCC(C(=O)O)N4)n3)ccc2n1CC(F)(F)F, 6.27 mM, 25.0 °C, 3.0 h) of 89%.

Consider `CO[C@@H](C)c1ncccc1-c1c2c3cc(ccc3n1CC(F)(F)F)-c1nc(ns1)C[C@H](NC(=O)OC(C)(C)C)C(=O)N1CCC[C@H](N1)C(=O)OCC(C)(C)C2`, for which the ring closure, isolated yield in series [1] (from CO[C@@H](C)c1ncccc1-c1c(CC(C)(C)CO)c2cc(-c3nc(C[C@H](NC(=O)OC(C)(C)C)C(=O)N4CCC[C@@H](C(=O)O)N4)ns3)ccc2n1CC(F)(F)F, EDCI/HOBt/DIPEA, 11.1 mM) was 43.5%. This molecule also had a ring closure, yield of all isomers in series [2] (from CO[C@@H](C)c1ncccc1-c1c(CC(C)(C)CO)c2cc(-c3nc(C[C@H](NC(=O)OC(C)(C)C)C(=O)N4CCC[C@@H](C(=O)O)N4)ns3)ccc2n1CC(F)(F)F, 11.1 mM, 25.0 °C, 16.0 h) of 43.5%.

For the molecule `Cc1nc(N2CCC3(CC2)CO[C@@H](C)[C@H]3N)c(CO)nc1-c1cccc(Cl)c1Cl` [RMC-4550], in series [3] (single agent: Compound C 60 mg/kg once weekly intravenous, SHP2 inhibitor (RMC-4550) 30 mg/kg daily oral), the “mice with tumor regression at end of study (out of 10), single agent” value came to 5.

As to `CC(=O)Nc1cccc(-n2c(=O)n(C3CC3)c(=O)c3c(Nc4ccc(I)cc4F)n(C)c(=O)c(C)c32)c1` [trametinib], the EC50 in the series on NCI-H358 cells [4] was 10 nM. Also, the “time to maximal confluence after the addition of drug” value in the series with NCI-H358 cells [5] (single agent at EC50 concentration: Compound D 17 nM) is ~10 days. The “cell growth (% confluence) over time, single agent” value in the series on NCI-H358 cells [5] (submaximal (EC50) concentration: Compound D 17 nM) was “a short period of growth inhibition, followed by proliferation”.

With `CC1(C)COC(=O)[C@@H]2CCCN(N2)C(=O)[C@@H](NC(=O)OC(C)(C)C)Cc2cccc(c2)-c2ccc3[nH]c(I)c(c3c2)C1`, in series [1] (from CC(C)(CO)Cc1c(I)[nH]c2ccc(-c3cccc(C[C@H](NC(=O)OC(C)(C)C)C(=O)N4CCC[C@@H](C(=O)O)N4)c3)cc12, EDCI/HOBt/DIPEA, 12.8 mM, 0.0 °C), the ring closure, isolated yield was determined as 79.8%. In series [2] (from CC(C)(CO)Cc1c(I)[nH]c2ccc(-c3cccc(C[C@H](NC(=O)OC(C)(C)C)C(=O)N4CCC[C@@H](C(=O)O)N4)c3)cc12, 12.77 mM, 0.0 °C, 16.0 h), this molecule displayed a ring closure, yield of all isomers of 79.8%.

As to `O=C(c1ccc(F)c(F)c1Nc1ccc(I)cc1F)N1CC(O)([C@@H]2CCCCN2)C1` [cobimetinib], in series [3] (setting [6]), the “effect on tumor growth, single agent” value is reported as “tumor growth inhibition” and the “tumor regressions recorded, single agent group” value is given as “no tumor regressions”.

The record behind these values is US11566007B2, “Ras inhibitors” (Revolution Medicines, Inc., priority 2019, dated 2023).
